Here are results for two molecules from patent publication US20240325370A1, “THERAPEUTIC REGIMENS OF A DEGRADER OF BRD9” (FOGHORN THERAPEUTICS INC., priority 2021, published 2024).

Structures are written as SMILES. Entries after “also recorded” stand apart in the source; their conditions may differ.

In one experiment the test system is SYO-1 tumor. Description: Intermittent dosing schedules, IV, SYO-1 xenograft efficacy. The note with it: for Tumor Size (mm^3) on Day 24: SYO-1 tumor-bearing NOD SCID mice, Mean ± SEM. In kind it is in vivo, mice. The procedure:
The objective of this study was to provide proof-of-concept of anti-tumor efficacy with intermittent dosing schedules for compound S-D1 by IV administration. Groups of female SYO-1 tumor-bearing NOD SCID mice (n=10/group) were dosed IV with vehicle, compound D1 or compound S-D1 for 24 days according to treatments and dosing schedules shown in Table 10. Compound D1 was formulated in 10% DMSO/40% PEG400/50% water and compound S-D1 was formulated in 20% SBECD in 5 mM citrate buffer, final pH was adjusted to 5 with 1 N NaOH. For the compound S-D1 treatment groups, plasma samples were collected at designated time points following the last dosing. Plasma samples were acidified to stabilize the compound right after collection and analyzed for compound S-D1 concentrations.

The next experiment concerns the target T1, BRD9 (Homo sapiens, UniProt Q9H8M2).
T1 sequence (Q9H8M2 1-597): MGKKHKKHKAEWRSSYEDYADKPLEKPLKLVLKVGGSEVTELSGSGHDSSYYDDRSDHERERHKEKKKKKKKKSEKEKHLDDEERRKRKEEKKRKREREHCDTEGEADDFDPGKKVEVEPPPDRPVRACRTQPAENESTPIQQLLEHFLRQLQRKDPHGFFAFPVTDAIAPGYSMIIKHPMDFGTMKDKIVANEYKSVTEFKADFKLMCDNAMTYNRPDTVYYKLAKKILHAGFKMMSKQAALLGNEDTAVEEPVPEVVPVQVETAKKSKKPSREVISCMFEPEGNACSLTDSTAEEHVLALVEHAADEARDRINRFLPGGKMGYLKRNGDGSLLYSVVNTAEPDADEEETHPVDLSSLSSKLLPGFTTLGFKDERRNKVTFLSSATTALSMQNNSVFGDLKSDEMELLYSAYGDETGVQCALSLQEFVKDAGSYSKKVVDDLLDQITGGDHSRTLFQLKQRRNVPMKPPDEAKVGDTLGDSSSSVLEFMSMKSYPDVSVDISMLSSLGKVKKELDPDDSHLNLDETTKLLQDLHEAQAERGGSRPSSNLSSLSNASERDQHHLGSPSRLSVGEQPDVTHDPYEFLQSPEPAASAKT
The experiment is described as follows: Pharmacodynamic activity in SYO-1 xenograft model (tumor BRD9 western blot). It counts as in vivo, mice. More on the design: from tissue; host or cells: SYO-1 xenograft tumours in BALB/c nude or NOD SCID mice. Conditions: for BRD9 protein levels depleted by: 20% SBECD. The procedure:
Method. The SYO-1 tumor cells were maintained in vitro as adherent cells in Dulbecco's Modified Eagle Medium (DMEM) supplemented with 10% fetal bovine serum at 37° C. in an atmosphere of 5% CO2 in air. The cells growing in an exponential growth phase were harvested and counted for tumor inoculation. BALB/c Nude mice (Shanghai Lingchang biological science) were inoculated subcutaneously on the right flank with (5×10^6) in 0.1 mL of phosphate buffered saline (PBS). The treatment-(described in table 6)—was started on day 19 after tumor inoculation, when the average tumor size reached 499 mm^3.
Mice were treated with racemic D1, 1 mg/kg, i.p. for 4 weeks, mice were euthanized, and tumors collected 1, 4, 8, 24, 48 and 72-hour post last dose. Tumors were lysed with 1×RIPA lysis buffer (Boston BioProducts, BP-115D) with protease and phosphatase protein inhibitor (Roche Applied Science #04906837001 & 05892791001). Equal amount of lysate (30 ug) were loaded in 4-12% Bis-Tris Midi Protein Gels in 1×MOPS buffer; samples ran at 120 V for 120 min. Proteins was transferred to membrane (NC) with TransBlot at 250 mA for 150 minute, then membranes were blocked with Odyssey Blocking buffer for 1 hour at room temperature. Membranes were hybridized overnight in cold room with primary antibodies. Images acquired using Li-COR imaging system (Li-COR Biotechnology, Lincoln, Nebraska).
Further study. The other study examined a range of compound D1 dose levels (0.05, 0.25, 1 or 5 mg/kg) formulated in a vehicle of 20% SBECD for tumor BRD9 protein levels up to 144 hours post dose. […] BRD9 protein levels were still depleted by 83.4% and 73.2% at 120 hours (5 days) and 144 hours (6 days), respectively, after a single IV administration of 5 mg/kg of compound D1, which corresponds to ˜2.5 mg/kg of compound S-D1.

A further experiment addresses T2, endogenous BRD9 (Homo sapiens, UniProt Q9H8M2).
T2 sequence (Q9H8M2 1-597): T1 sequence (Q9H8M2 1-597)
The experiment is described as follows: Western blot dose response of endogenous BRD9 degradation in cancer cell lines of different lineage. In kind it is cell-based. The note with it: for potency of endogenous BRD9 degradation (western blot): 6 hours. The procedure: Compound D1 and Compound S-D1 Dose Response Experiments in Multiple Cell Lines of Different Lineage. To evaluate the efficacy of compound S-D1 ((S)-enantiomer) and compound D1 (racemic) to degrade BRD9 across different cancer lineages (listed in Table 19), dose response experiments were performed in SYO-1, EOL-1, MD-MBA-231, OVCAR8, and PC-9 cell lines. After cell treatment, BRD9 protein levels were assessed by western blot analyses.
Cells grown in flasks to log phase growth were washed with PBS and dissociated by adding TrypLE™ Express (Foghorn) or Trypsin-EDTA 0.25% (Pharmaron). Collected cells were resuspended in their respective cell culture media, counted, and seeded at the indicated cell density in 6-well plates. Two wells were allocated per sample. Plates were incubated at 37° C. with 5% CO2 overnight.
The next day, compound was added to a final concentration as indicted in FIGS. 32B, 32C, and 32D with 3-fold dilution steps, with the final DMSO content of 0.1% (v/v) matching the untreated control. After 6 hours of incubation, cells were harvested, resuspended in PBS, and centrifuged at 5,000 rpm for 5 minutes. After being washed twice with PBS, the resulting cell pellets were stored at −80° C.
Cell lines and cell treatment procedures are highlighted in Table 19 and specific details about western blot procedures are listed in Table 20. The western blot procedure was as described above.
(In general: A western blot detects proteins with antibodies after separation by electrophoresis.)

[1] abbreviates: 1 mg/kg BIW IV, 24 days (compound D1).
Where [2] appears, read: 1 mg/kg BIW IV, 24 days (compound S-D1).

For `COc1cc(-c2cn(C)c(=O)c3cnc(N4CCC4)cc23)cc(OC)c1CN1CCC(CN2CCC3(CC2)CN(c2ccc4c(c2)C(=O)N(C2CCC(=O)NC2=O)C4)C3)CC1` (racemic) [Compound D1, 3-[6-(7-[[1-([4-[6-(azetidin-1-yl)-2-methyl-1-oxo-2,7-naphthyridin-4-yl]-2,6-dimethoxyphenyl]methyl)piperidin-4-yl]methyl]-2,7-diazaspiro[3.5]nonan-2-yl)-1-oxo-3H-isoindol-2-yl]piperidine-2,6-dione], the “T/C (%)” value with SYO-1 tumor (setting [1]) amounted to 12.6%. The “TGI (%)” value in the experiment with SYO-1 tumor (setting [1]) is listed as 87.4%. In the experiment with SYO-1 tumor (1 mg/kg BIW IV, 24 days), the “Tumor Size (mm^3) on Day 24” value worked out at 426 ± 49 mm^3. The “tumor BRD9 protein level response” value at BRD9 (0.05, 0.25, 1 or 5 mg/kg, up to 144 hours post dose) is “robust and dose- and time-dependent”. Also, the entries for the “BRD9 protein levels depleted by” value on BRD9 (120 hours (5 days) after a single IV administration of 5 mg/kg) and on BRD9 (144 hours (6 days) after a single IV administration of 5 mg/kg) were 83.4% and 73.2%, respectively. Besides, the “potency of endogenous BRD9 degradation (western blot)” value on endogenous BRD9 (MDA-MB-231 (breast cancer), OVCAR8 (ovarian cancer) and EOL1 cells) is recorded as “comparable potency”; on endogenous BRD9 (PC-9 (EGFR mutant lung cancer) cells), “reduced potency”.
Regarding `COc1cc(-c2cn(C)c(=O)c3cnc(N4CCC4)cc23)cc(OC)c1CN1CCC(CN2CCC3(CC2)CN(c2ccc4c(c2)C(=O)N([C@H]2CCC(=O)NC2=O)C4)C3)CC1` (single isomer, unassigned) [Compound S-D1], in the experiment on SYO-1 tumor (0.05 mg/kg BIW IV, 24 days), the “T/C (%)” value worked out at 58.2%, the “TGI (%)” value is reported as 41.8% and the “Tumor Size (mm^3) on Day 24” value is recorded as 1946 ± 123 mm^3. Also, in the experiment with SYO-1 tumor (setting [2]), the “T/C (%)” value came to 8.1%, the “TGI (%)” value is reported as 91.9% and the “Tumor Size (mm^3) on Day 24” value worked out at 280 ± 37 mm^3. Also, in the experiment with SYO-1 tumor (2 mg/kg QW IV, 24 days), the “T/C (%)” value is recorded as 10.1%, the “TGI (%)” value stood at 89.9% and the “Tumor Size (mm^3) on Day 24” value stood at 341 ± 38 mm^3. The tumor response entry in the experiment with SYO-1 tumor (0.25 or 1 mg/kg twice weekly IV, SYO-1 tumor) was “tumor stasis”. Moreover, on BRD9 (SYO-1 xenograft, BALB/c Nude mice, single dose i.v. (Table 6), listed as Enantiomer 2), the “Pharmacodynamic activity: tumor BRD9 protein level by western blot” value is given as “significant activity; also recorded: degraded BRD9 up to 72 hours after a single dose; also recorded: equipotent to racemic compound D1”. Further, at endogenous BRD9 (with 1 μM Bortezomib, a proteasome inhibitor (FIG. 32D, EOL-1 cells)), the “BRD9 degradation activity when proteasome blocked” value was “largely abrogated”.
